Experimental data published in patent US20240174618A1, “SUBSTITUTED (2-HETEROARYLOXYPHENYL)SULFONATES, SALTS THEREOF AND THEIR USE AS HERBICIDAL AGENTS” (Bayer Aktiengesellschaft, priority 2021, published 2024).

Key:
Assay type in all cases: in vivo
Viola tricolor (VIOTR) [1] = test: E. Herbicidal post-emergence efficacy, VIOTR
In short: (§1)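 Greenhouse weeds were treated post-emergence at the one-leaf stage, 2-3 weeks after sowing in sandy loam, with WP or EC formulations sprayed as aqueous suspension/emulsion plus 0.5% additive at 600 l/ha, at 320 g/ha or less. Efficacy was rated visually after about 3 weeks versus untreated controls (100% = dead, 0% = like control).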

[2] = test system: Polygonum convolvulus (POLCO); test: E. Herbicidal post-emergence efficacy, POLCO
In short: as §1

Kochia scoparia (KCHSC) = test: B. Herbicidal post-emergence efficacy, KCHSC; settings: for Post-emergence efficacy against KCHSC in %: rated visually after about 3 weeks; for Post-emergence efficacy against KCHSC: 1280 g/ha
In short: (§2)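 Weeds grown in sandy loam in greenhouse and sprayed at the one-leaf stage, 2–3 weeks after sowing, with WP or EC formulations plus 0.5% additive at 600 L/ha water. Injury rated visually versus untreated controls after about 3 weeks (100% = dead, 0% = like control); rates up to 1280 g/ha.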

Lolium rigidum (LOLRI) = test: C. Herbicidal pre-emergence efficacy, LOLRI; settings: 320 g/ha, scored after about 3 weeks
In short: (§3)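 Pre-emergence test: formulated compounds sprayed as aqueous suspension or emulsion with 0.5% additive at 600 l/ha onto soil covering sown seeds, at rates corresponding to 320 g/ha or less. After about 3 weeks in greenhouse, efficacy scored visually as percent versus untreated controls (100% = plants dead).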

Setaria viridis (SETVI) = test: C. Herbicidal pre-emergence efficacy, SETVI; settings: scored after about 3 weeks
In short: as §3

Poa annua (POAAN) = test: B. Herbicidal post-emergence efficacy, POAAN
In short: as §2

Viola tricolor (VIOTR) [3] = test: C. Herbicidal pre-emergence efficacy, VIOTR
In short: as §3

[4] = test system: Triticum aestivum (TRZAS); test: F. Post-emergence effect on useful plants, TRZAS; settings: useful plant
In short: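 Crop plants grown in sandy loam in the greenhouse were sprayed at the one-leaf stage, 2-3 weeks after sowing, with WP or EC formulations plus 0.5% additive at 600 l/ha water. Damage was scored visually after about 3 weeks against untreated controls (0% = like control, 100% = dead).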

[5] = test system: Alopecurus myosuroides (ALOMY); test: C. Herbicidal pre-emergence efficacy, ALOMY; settings: scored after about 3 weeks
In short: as §3

| Structure (SMILES) | Post-emergence efficacy against VIOTR in % (Viola tricolor (VIOTR) [1]; application rate 80 g/ha) [%] | Post-emergence efficacy against VIOTR in % (Viola tricolor (VIOTR) [1]; application rate 320 g/ha) [%] | Post-emergence efficacy against POLCO in % ([2]; application rate 80 g/ha) [%] | Post-emergence efficacy against POLCO in % ([2]; application rate 320 g/ha) [%] | Post-emergence efficacy against KCHSC in % (Kochia scoparia (KCHSC); 80 g/ha) [%] | Post-emergence efficacy against KCHSC in % (Kochia scoparia (KCHSC); 320 g/ha) [%] | Post-emergence efficacy against KCHSC (Kochia scoparia (KCHSC)) [%] | Pre-emergence efficacy against LOLRI (Lolium rigidum (LOLRI)) [%] | Pre-emergence efficacy against SETVI (Setaria viridis (SETVI); 80 g/ha) [%] | Pre-emergence efficacy against SETVI (Setaria viridis (SETVI); 320 g/ha) [%] | Post-emergence efficacy against POAAN (Poa annua (POAAN); 1280 g/ha) [%] | Pre-emergence efficacy against VIOTR in % (Viola tricolor (VIOTR) [3]; application rate 80 g/ha) [%] | Pre-emergence efficacy against VIOTR in % (Viola tricolor (VIOTR) [3]; application rate 320 g/ha) [%] | Post-emergence efficacy against TRZAS in % ([4]; application rate 80 g/ha) [%] | Pre-emergence efficacy against ALOMY ([5]; 80 g/ha) [%] | Pre-emergence efficacy against ALOMY ([5]; 320 g/ha) [%] | Post-emergence efficacy against POAAN (Poa annua (POAAN); 320 g/ha) [%] | Post-emergence efficacy against TRZAS in % ([4]; application rate 320 g/ha) [%] | Post-emergence efficacy against POAAN (Poa annua (POAAN); 80 g/ha) [%] |
| --- | --- | --- | --- | --- | --- | --- | --- | --- | --- | --- | --- | --- | --- | --- | --- | --- | --- | --- | --- |
| O=S(=O)(CCC(F)(F)F)Oc1ccccc1Oc1ncc(Cl)cn1 [Example I-8] | 80 | 100 | 90 | 90 | 90 | 90 | 90 | 100 | 100 | 100 | 90 | 90 | 90 | 20 | 90 | 100 | – | – | – |
| CC(C)CS(=O)(=O)Oc1ccccc1Oc1ncc(Cl)cn1 [Example I-7, [2-(5-Chloropyrimidin-2-yl)oxyphenyl] 2-methylpropane-1-sulfonate] | – | 90 | – | 100 | – | – | 90 | 90 | 100 | 100 | 90 | 80 | 100 | 20 | 90 | 100 | – | – | – |
| O=S(=O)(CCC(F)(F)F)Oc1c(F)cccc1Oc1ncc(Br)cn1 [Example I-40] | 100 | 100 | 100 | 100 | 90 | 90 | 90 | 100 | 100 | 100 | 90 | 100 | 100 | 10 | – | 100 | 90 | 20 | – |
| O=S(=O)(CCCCl)Oc1c(F)cccc1Oc1ncc(Cl)cn1 [Example I-14] | 90 | 90 | 80 | 90 | 100 | 100 | 100 | 100 | 100 | 100 | 100 | 100 | 100 | 20 | 90 | 100 | 100 | – | 90 |
